Assay results taken from article PMC3397407 (Journal of Medicinal Chemistry, 2012).

Columns and labels:
[1] = In vivo disposition and metabolites of 3 in rats after gavage; parameters: species or system rat; conditions: after gavage of 3
[2] = tested on: RXRE transcriptional activity (COS-1 cells transfected with pRXRE, phRXRα and pRL); experiment: RXRE-luciferase reporter gene assay; conditions: for absolute activity induced (firefly luciferase, not normalized): 24 h incubation conditions; for maximum enhancement of RXRE transcriptional activity: after 4–6 h of incubation
[3] = tested on: NFκB; experiment: NFκB luciferase assay; format: cell-based, Human
[4] = rat, gavage 40 mg/kg daily for 3 days; cited from earlier work
[5] = Metabolic stability with pooled human liver microsomes
[6] = 10 µM, glutathione 10 mM, NADPH, 60 min
[7] = Chemical stability of synthetic metabolite 4; format: physicochemical; conditions: air and moisture or DMSO solution

Nc1ccc2c3c(n(CCCO)c(=O)c2c1)-c1ccccc1C3=O [Compound 7, 6-(3-Hydroxypropyl)-3-amino-5H-indeno[1,2-c]isoquinoline-5,11(6H)dione]
metabolite detected in rat liver [1]: detected in rat liver | metabolite detected in rat mammary tissue [1]: not in serum or mammary tissue

C=C(c1ccc(C(=O)O)cc1)c1cc2c(cc1C)C(C)(C)CCC2(C)C [Compound 2, bexarotene, reference compound]
absolute activity induced (firefly luciferase, not normalized) [2]: 22.4 ± 3.1 fold | maximum enhancement of RXRE transcriptional activity [2]: 10 fold | RXRE IR ([2]; at 40 µM): 8.85±3.89

CC(=O)Nc1ccc2c3c(n(CCCO)c(=O)c2c1)-c1ccccc1C3=O [Compound 9, N-[6-(3-Hydroxypropyl)-5,11-dioxo-6,11-dihydro-5H-indeno[1,2-c]isoquinolin-3-yl]acetamide]
metabolite detected in rat liver [1]: detected in rat liver | metabolite detected in rat mammary tissue [1]: not in serum or mammary tissue

CNc1ccc2c3c(n(CCCN)c(=O)c2c1)-c1ccccc1C3O (centres unmarked) [Compound 29]
concentration range of NFκB inhibition, in words [3]: sub-µM concentrations

CNc1ccc2c3c(n(CCCNC(=O)OC(C)(C)C)c(=O)c2c1)-c1ccccc1C3O (centres unmarked) [Compound 27]
concentration range of NFκB inhibition, in words [3]: sub-µM concentrations

NCCCn1c2c(c3ccc(N)cc3c1=O)C(=O)c1ccccc1-2 [Compound 3, 3-amino-6-(3'-aminopropyl)-5H-indeno[1,2-c]isoquinoline-5,11-(6H)dione]
concentration in liver [4]: 4.3 µg/g | concentration in mammary gland [4]: 0.3 µg/g | concentration in serum [4]: 0.8 µg/mL | elimination rate constant ([5]; 1 µM, 1 mg protein/mL, 60 min): 0.0053 | CLint scaled at 1 µM ([5]; both, human, microsomes, pH 7.4): 5.33 mL/min/kg | formation of glutathione conjugates (electrophilic metabolites) [6]: no evidence of glutathione conjugates | RXRE Highest IR (maximum induction ratio) [2]: 7.67±0.37 | absolute activity induced (firefly luciferase, not normalized) [2]: 40.5 ± 5.4 fold | RXRE induction ([2]; 24 h incubation, 5 µM): ~ 160 fold | induction ratio normalized on Renilla luciferase activity ([2]; 24 h incubation, Figure 9): exceeded 100 fold | maximum enhancement of RXRE transcriptional activity [2]: 5 fold

Nc1ccc2c3c(n(CCCO)c(=O)c2c1)-c1ccccc1C3O (centres unmarked) [Compound 8, 3-Amino-11-hydroxy-6-(3-hydroxypropyl)-6,11-dihydro-5H-indeno[1,2-c]isoquinolin-5-one]
metabolite detected in rat liver [1]: detected in rat liver | metabolite detected in rat mammary tissue [1]: not in serum or mammary tissue | activity as inhibitor of NFκB, in words [3]: inhibited activity as high concentrations

CNCCCn1c2c(c3ccc(N)cc3c1=O)C(O)c1ccccc1-2 (centres unmarked) [Compound 34]
concentration range of NFκB inhibition, in words [3]: sub-µM concentrations

CC(=O)Nc1ccc2c3c(n(CCCN)c(=O)c2c1)-c1ccccc1C3=O [Compound 5, N-[6-(3-Aminopropyl)-5,11-dioxo-6,11-dihydro-5H-indeno[1,2-c]isoquinolin-3-yl]acetamide]
metabolite detected in rat liver [1]: detected | metabolite detected in rat mammary tissue [1]: not in mammary tissue | metabolite detected in rat serum [1]: detected | activity as inducer of RXRE transcriptional activity, in words [2]: moderately active at high concentrations

CC(=O)Nc1ccc2c3c(n(CCCN)c(=O)c2c1)-c1ccccc1C3O (centres unmarked) [Compound 6, N-[6-(3-Aminopropyl)-11-hydroxy-5-oxo-6,11-dihydro-5H-indeno[1,2-c]isoquinolin-3-yl]acetamide]
metabolite observed in vivo using rats [1]: all except 6 and 10 were observed in vivo

NCCCn1c2c(c3ccc(N)cc3c1=O)C(O)c1ccccc1-2 (centres unmarked) [Compound 4, 3-Amino-6-(3-aminopropyl)-11-hydroxy-6,11-dihydro-5H-indeno[1,2-c]isoquinolin-5-one]
chemical stability [7]: rather unstable and slowly oxidized back to 3 | metabolite detected in rat liver [1]: detected in rat liver | metabolite detected in rat mammary tissue [1]: not in serum or mammary tissue
